What follows are compounds tested against MAPK14 (human) (UniProt Q16539) (assay: Inhibition of MAPK14 Kinase Activity).
MAPK14 (human), sequence (Q16539 whole entry, looked up): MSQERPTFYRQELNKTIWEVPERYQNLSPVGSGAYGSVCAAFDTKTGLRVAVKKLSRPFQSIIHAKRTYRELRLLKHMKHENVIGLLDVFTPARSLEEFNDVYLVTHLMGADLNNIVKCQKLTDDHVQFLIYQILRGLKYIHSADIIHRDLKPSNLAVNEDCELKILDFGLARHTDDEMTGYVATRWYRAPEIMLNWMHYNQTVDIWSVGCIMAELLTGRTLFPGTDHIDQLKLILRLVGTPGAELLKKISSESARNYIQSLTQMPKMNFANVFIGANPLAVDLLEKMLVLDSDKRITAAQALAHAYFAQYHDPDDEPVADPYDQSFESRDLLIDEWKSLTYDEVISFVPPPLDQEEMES

Row | Compound | IC50 [nM]
1 | CC(C)NC(=O)c1csc(-c2c(-c3ccc(F)cc3)n[nH]c2C2CCN(C(=O)c3ccccc3C=O)CC2)n1 | ≤ 1000
2 | CC(C)NC(=O)c1csc(-c2oc(CNC(C)CO)nc2-c2ccc(F)cc2)n1 (stereo not given) | ≤ 1000
3 | CC(C)NC(=O)c1csc(-c2oc(CNC(=O)c3cccnc3)nc2-c2ccc(F)cc2)n1 | ≤ 1000
4 | COc1cccc(OC)c1C(=O)N1CCN(Cc2nc(-c3ccc(F)cc3)c(-c3nc(C(=O)NC(C)C)cs3)o2)CC1 | ≤ 1000
5 | COc1ccc(C(=O)N2CCN(Cc3nc(-c4ccc(F)cc4)c(-c4nc(C(=O)NC(C)C)cs4)o3)CC2)c(OC)c1OC | ≤ 1000
6 | CC(=O)N1CCC(n2cnc(-c3ccc(Cl)cc3)c2-c2nc(C(=O)NC(C)C)cs2)CC1 | ≤ 1000
7 | CC(C)NC(=O)c1csc(-c2oc(CNC(=O)c3cc(F)c(F)cc3[N+](=O)[O-])nc2-c2ccc(F)cc2)n1 | ≤ 1000
8 | COc1ccc(C(=O)N2CCN(Cc3nc(-c4ccc(F)cc4)c(-c4nc(C(=O)NC(C)C)cs4)o3)CC2)cc1O | ≤ 1000
9 | CC(C)NC(=O)c1csc(-c2c(-c3ccc(F)cc3)noc2CN2CCNCC2)n1 | ≤ 1000
10 | Cc1onc(-c2ccc(Cl)cc2)c1-c1cc(C)n(C(=O)NC(C)C)n1 | ≤ 1000
11 | CONC(=O)c1csc(-c2c(-c3ccc(F)cc3)n[nH]c2C2CCNCC2)n1 | ≤ 1000
12 | Cc1cnc(CNC(=O)c2csc(-c3sc(C)nc3-c3ccc(F)cc3)n2)cn1 | ≤ 1000
13 | CC(C)NC(=O)c1csc(-c2c(-c3ccc(F)cc3)noc2CNC(=O)c2cccc3ccccc23)n1 | ≤ 1000
14 | O=C(NCc1ccccc1F)c1csc(-c2c(-c3ccc(F)cc3)n[nH]c2C2CCNCC2)n1 | ≤ 1000
15 | CCOc1ccc2ccccc2c1C(=O)N1CCN(Cc2nc(-c3ccc(F)cc3)c(-c3nc(C(=O)NC(C)C)cs3)o2)CC1 | ≤ 1000
16 | Cc1nc(-c2ccc(F)cc2)c(-c2nc(C(=O)NCCOc3ccccc3)cs2)s1 | ≤ 1000
17 | Cc1onc(-c2ccc(Cl)cc2)c1-c1ccn(C(=O)NC2CCCC2)n1 | ≤ 1000
18 | CC(C)NC(=O)c1csc(-c2oc(CN3CCN(C(=O)C4CCc5ccccc5C4)CC3)nc2-c2ccc(F)cc2)n1 (stereo not given) | ≤ 1000
19 | CC(=O)N1CCC(c2[nH]nc(-c3ccc(F)cc3)c2-c2nc(C(=O)NC(C)C)cs2)CC1 | ≤ 1000
20 | Cc1cccc([N+](=O)[O-])c1C(=O)NCc1nc(-c2ccc(F)cc2)c(-c2nc(C(=O)NC(C)C)cs2)o1 | ≤ 1000
21 | CCOC(=O)CC1C(=O)NCCN1C(=O)c1csc(-c2sc(C)nc2-c2ccc(F)cc2)n1 (stereo not given) | ≤ 1000
22 | Cc1nc(-c2ccc(F)cc2)c(-c2nc(C(=O)NC3CCC3)cs2)s1 | ≤ 1000
23 | CCCCOc1ccc(C(=O)N2CCN(Cc3nc(-c4ccc(F)cc4)c(-c4nc(C(=O)NC(C)C)cs4)o3)CC2)cc1 | ≤ 1000

Row | Compound | IC50 [nM]
24 | CC(C)NC(=O)c1csc(-c2c(-c3ccc(F)cc3)n[nH]c2C2CCN(C(=O)C(F)(F)F)CC2)n1 | ≤ 1000
25 | CC(C)NC(=O)c1csc(-c2c(-c3ccc(F)cc3)noc2CNC(=O)C(O)CCl)n1 (stereo not given) | ≤ 1000
26 | Cc1nc(-c2ccc(F)cc2)c(-c2nc(C(=O)NCc3ccc(Cl)c(Cl)c3)cs2)s1 | ≤ 1000
27 | CC(C)NC(=O)c1csc(-c2c(-c3ccc(F)cc3)ncn2C)n1 | ≤ 1000
28 | CC(C)NC(=O)c1csc(-c2c(-c3ccc(F)cc3)noc2CN(C)CCO)n1 | ≤ 1000
29 | CC(C)C(CO)NC(=O)c1csc(-c2c(-c3ccc(F)cc3)n[nH]c2C2CCNCC2)n1 (stereo not given) | ≤ 1000
30 | Cc1nc(-c2ccc(F)cc2)c(-c2nc(C(=O)NCc3ccccc3Cl)cs2)s1 | ≤ 1000
31 | CC(C)NC(=O)c1csc(-c2oc(CNC(=O)c3c(F)cccc3F)nc2-c2ccc(F)cc2)n1 | ≤ 1000
32 | Cc1nc(-c2ccc(F)cc2)c(-c2nc(C(=O)NCCC(C)C)cs2)s1 | ≤ 1000
33 | CC(C)NC(=O)c1csc(-c2oc(CNC(=O)c3c(F)cccc3Cl)nc2-c2ccc(F)cc2)n1 | ≤ 1000
34 | Cc1[nH]nc(-c2ccc(F)cc2)c1-c1nc(C(=O)NCC2CC2)cs1 | ≤ 1000
35 | CC(C)NC(=O)c1csc(-c2oc(CNC(=O)c3cc(C(C)C)cc(C(C)C)c3O)nc2-c2ccc(F)cc2)n1 | ≤ 1000
36 | CC(C)NC(=O)c1csc(-c2oc(CNC(=O)C(F)(F)F)nc2-c2ccc(F)cc2)n1 | ≤ 1000
37 | Cc1nc(-c2ccc(F)cc2)c(-c2nc(C(=O)NC3CCCCC3C)cs2)s1 (stereo not given) | ≤ 1000
38 | C#CCNC(=O)c1csc(-c2c(-c3ccc(F)cc3)ncn2C2CCNCC2)n1 | ≤ 1000
39 | COc1cc(CN(C)C(=O)c2csc(-c3sc(C)nc3-c3ccc(F)cc3)n2)cc(OC)c1OC | ≤ 1000
40 | COc1ccc(NC(=O)c2csc(-c3sc(C)nc3-c3ccc(F)cc3)n2)c(C)c1 | ≤ 1000
41 | CC(C)NC(=O)c1csc(-c2oc(CNC(=O)c3cccc(O)c3)nc2-c2ccc(F)cc2)n1 | ≤ 1000
42 | CC(C)NC(=O)c1csc(-c2oc(CNC(=O)c3cc(Cl)ccc3Cl)nc2-c2ccc(F)cc2)n1 | ≤ 1000
43 | CC(C)Cc1ccc(C(C)C(=O)N2CCN(Cc3nc(-c4ccc(F)cc4)c(-c4nc(C(=O)NC(C)C)cs4)o3)CC2)cc1 (stereo not given) | ≤ 1000
44 | CC(=O)c1cccc(NCc2onc(-c3ccc(F)cc3)c2-c2nc(C(=O)NC(C)C)cs2)c1 | ≤ 1000
45 | CC(C)NC(=O)c1csc(-c2oc(CNC(=O)c3cccc(F)c3F)nc2-c2ccc(F)cc2)n1 | ≤ 1000

Reference: the Kinase Knowledgebase extract (Sharma et al. 2016)
